Measured values: patent US9029518B2, “Method of extracting kaempferol-based antioxidants from Solenostemma arghel” (priority 2012, dated 2015)

Experiments:
[1] = DPPH free radical scavenging activity; type: biochemical
Protocol: The antipyretic activity was estimated using Brewer's yeast-induced hyperpyrexia in rats. Both water and total alcohol extracts were separately given orally at doses of 0.25, 0.5 and 1.0 g/kg, respectively. The antioxidant activity was evaluated using 2,2-diphenyl-1-picrylhydrazyl (DPPH) free radical scavenging activity. A 0.05 ml sample of the test compound was added to a methanol solution of DPPH (100 μM 2.95 ml) dissolved in methanol. The compound was added at different concentrations of 2, 4, 6, 8 and 10 mg/ml, respectively, as well as for water, and the total ethanol extracts and fractions. Concentrations of 1, 2, 3, 4 and 5 mg/ml were used for C1 and C2. Equal amounts of methanol were added to the control. Absorbance was recorded at 517 nm at regular intervals of 15 s for 5 min. Ascorbic acid (100 μM) was used as a standard.
The results are shown in Table 4 below, and in FIGS. 4A and 4B.
With regard to antioxidant activity (in vitro), all extracts were tested at concentrations of 2, 4, 6, 8 and 10 mg/ml.

[2] = tested on: response of mice to hot plate thermal stimulation; assay: Hot plate test (central analgesic activity); type: in vivo; conditions: for Latency (mean latency time until licking or jumping): time 0 min, hot plate 55° C.; for central analgesic activity compared with methamizol 0.05 g/kg: total ethanol extract 0.25, 0.5 and 1 g/kg, fractions 0.25 g/kg, C1 and C2 0.1 g/kg, I.P.
Protocol: The total alcoholic extract was given at doses of 0.25, 0.5 and 1.0 g/kg, respectively, fractions were given at doses of 0.25 g/kg, and compounds were given at doses of 0.1 g/kg. The effect of the alcoholic extract, fractions and isolated compounds are shown in FIGS. 3A, 3B and 3C, respectively, and given below in Table 3.
FIGS. 3A, 3B and 3C graphically illustrate the mean latency time (in seconds) until licking or jumping. This was recorded with mice being placed in a glass beaker, which was placed on a hot plate, which was maintained at 55° C. Measurements were taken 20, 60 and 90 minutes, respectively, after intraperitoneal injection of fractions (0.25 g/kg) and the isolated compounds (0.1 g/kg) from Solenostemma arghel, compared with the control group and methamizol.
This effect started after 20 min. and persisted for 90 min. after I.P. administration of the extracts.

[3] = tested on: carrageenan-induced rat paw edema; assay: Carrageenan-induced rat paw edema (anti-inflammatory); type: in vivo
Excerpt: The total alcohol (ethanol) extract was given at doses of 0.25, 0.5 and 1 g/kg, respectively, and fractions were given in doses of 0.25 g/kg. […]

[4] = tested on: acetic acid-induced writhes in mice; assay: Acetic acid-induced writhes in mice (peripheral analgesic activity); type: in vivo

SMILES	Radical scavenging activity (%) ± S.D. ([1]; concentration 1 mg/ml) [%]	Radical scavenging activity (%) ± S.D. ([1]; concentration 2 mg/ml) [%]	Radical scavenging activity (%) ± S.D. ([1]; concentration 3 mg/ml) [%]	Radical scavenging activity (%) ± S.D. ([1]; concentration 4 mg/ml) [%]	Radical scavenging activity (%) ± S.D. ([1]; concentration 5 mg/ml) [%]	Latency (mean latency time until licking or jumping) ([2]; dose 0.1 g/kg I.P.) [s]	central analgesic activity compared with methamizol 0.05 g/kg [2]	% inhibition of control ([3]; dose 0.1 g/kg oral, time 1 h) [%]	% inhibition of control ([3]; dose 0.1 g/kg oral, time 2 h) [%]	% inhibition of control ([3]; dose 0.1 g/kg oral, time 3 h) [%]	% Protection of control ([4]; dose 0.1 g/kg oral) [%]	further results
O=c1c(O[C@@H]2O[C@H](CO)[C@@H](O)[C@H](O)[C@H]2O)c(-c2ccc(O[C@@H]3O[C@H](CO)[C@@H](O)[C@H](O)[C@H]3O)cc2)oc2cc(O)cc(O)c12 [C1, kaempferol-3, 4′-diglucoside]	26.51 ± 1.01	37.94 ± 0.98	52.63 ± 0.99	67.72 ± 1.12	83.40	5.50 ± 0.85	significantly (P<0.05) greater than that of methamizol	59.06	71.31	53.93	59.02	–
C[C@H]1O[C@H](OC[C@H]2O[C@@H](Oc3c(-c4ccc(O)cc4)oc4cc(O)cc(O)c4c3=O)[C@H](O)[C@@H](O)[C@@H]2O)[C@@H](O)[C@@H](O)[C@@H]1O [C2, kaempferol-3-rutinoside]	30.28 ± 1.10	39.64 ± 0.88	65.30 ± 0.98	70.12 ± 1.01	86.50	5.80 ± 0.79	significantly (P<0.05) greater than that of methamizol	62.50	70.02	53.60	68.90	–
O=C(O)Cc1ccccc1Nc1c(Cl)cccc1Cl [Diclofenac sodium, diclofenac sodium, reference compound]	–	–	–	–	–	–	–	–	–	–	–	% inhibition of control ([3]; dose 0.03 g/kg, time 0 h (so in the source)): 30.24%; % inhibition of control ([3]; dose 0.03 g/kg, time 2 h): 48.42%; % inhibition of control ([3]; dose 0.03 g/kg, time 3 h): 54.69%
Cc1c(N(C)CS(=O)(=O)[O-])c(=O)n(-c2ccccc2)n1C.[Na+] [Methamizol, methamizol, reference compound]	–	–	–	–	–	–	–	–	–	–	–	Latency (mean latency time until licking or jumping) ([2]; dose 0.05 g/kg): 5.26 ± 0.94 s; % Protection of control ([4]; dose 0.05 g/kg): 52.32%
O=C1O[C@H]([C@@H](O)CO)C(O)=C1O [ascorbic acid, reference compound]	–	–	–	–	–	–	–	–	–	–	–	scavenging activity towards DPPH radicals ([1]; concentration 100 μM (standard)): 87.8%
